Assay results published in patent US20230295236A1, “COMPOUNDS FOR USE IN INFLAMMATORY CONDITIONS” (priority 2020, published 2023).
Where two headings read alike, the source gives them in different places.

Key:
[1] = test system: WNV-GFP (lineage 2; molecular clone WN956)
alveolar macrophages = assay: LPS animal inflammation model: macrophages in bronchoalveolar lavage by flow cytometry; assay type: in vivo, mouse; conditions: mice 1 mg/kg single i.v., LPS 20 µg/kg i.p.
Source text: Three hours later, bronchoalveolar lavages were collected.

SARS-CoV-2 [2] = assay: SARS-CoV-2 dose-response curve analysis by immunofluorescence in Vero cells
SARS-CoV-2 [3] = assay: SARS-CoV-2 cytopathic effect in Vero E6 cells (CellTiter-Glo); assay type: cell-based; conditions: Severe acute respiratory syndrome coronavirus 2, Vero C1008, 72 h, 3 days post infection, two experiments with two replicates each, read-out: IC50 viral-induced cytopathic effect (mean and standard deviation)
Description: Vero E6 cells (ATCC CRL-1586) were cultured in Dulbecco’s modified Eagle medium, (DMEM; Lonza) supplemented with 5% fetal calf serum (FCS; EuroClone), 100 U/mL penicillin, 100 µg/mL streptomycin, and 2 mM glutamine (all ThermoFisher Scientific).
Plitidepsin was used at a concentration ranging from 100 µM to 0.0512 nM at ⅕ serial dilutions, and also assayed from 10 µM to 0.5 nM at ⅓ dilutions.
Increasing concentrations of Plitidepsin was added to Vero E6 cells together with 10^1.8 TCID50/mL of SARS-CoV-2, a concentration that achieves a 50% of cytopathic effect. Non-exposed cells were used as negative controls of infection. In order to detect any drug-associated cytotoxic effect, Vero E6 cells were equally cultured in the presence of increasing drug concentrations, but in the absence of virus. Cytopathic or cytotoxic effects of the virus or drugs were measured at 3 days post infection, using the CellTiter-Glo luminescent cell viability assay (Promega). Luminescence was measured in a Fluoroskan Ascent FL luminometer (ThermoFisher Scientific).
Response curves were adjusted to a non-linear fit regression model, calculated with a four-parameter logistic curve with variable slope. […] Statistical differences from 100% were assessed with a one sample t test. […]

SARS-CoV-2 [4] = assay: SARS-CoV-2 replication in human stem cell-derived pneumocyte like cells; assay type: cell-based; conditions: 10 nm plitidepsin for 1 hour before infection; 48 hour incubation
Description: Several in vitro experiments aimed at determining the effect of plitidepsin on SARS-CoV-2 were carried out and are disclosed herein. […] In another study, human stem cell-derived pneumocyte like cells were prophylactically exposed to 10 nm plitidepsin for 1 hour and then infected with SARS-CoV-2 (4 × 10^4 plaque forming units). After a 48 hour incubation period, both antiviral and cytotoxic plitidepsin effects were determined.

SARS-CoV-2 [5] = assay: APLICOV-PC clinical study in patients hospitalised for COVID-19: efficacy; assay type: in vivo, human
WNV-NY99 (lineage 1) [6] = assay type: cell-based, West Nile virus; conditions: for Intracellular WNV RNA load (RT-qPCR): Vero-E6 cells
WNV-NY99 (lineage 1) [7] = conditions: Huh-7 cells
Vero-E6 cells = assay: Cell biomass (DAPI) in Vero-E6 cells; assay type: cell-based, African green monkey; conditions: VeroE6 cells, 48 hours
Description: (§1) Relative infection efficiency was assessed by automated fluorescence microscopy in the green channel and overall cell biomass/well was estimated by nuclear staining with DAPI in the blue channel, as a preliminary assessment of the compound effective doses as well as overall compound cytotoxicity.
(§2) Cells were fixed by addition of a 5X formaldehyde solution to achieve a 4% final concentration for 30 mins at room temperature. Cells were washed with PBS and stained with DAPI (4′,6-diamidino-2-phenylindole) following manufacturer’s recommendations. Relative infection efficiency was estimated by image analysis in an automated microscopy device (Tecan Spark Cyto). Uninfected cells and vehicle-treated controls were included in each plate.

[8] = Cell biomass (DAPI) in Vero-E6 cells; assay type: cell-based, African green monkey; conditions: African green monkey, Vero-E6 cells, VeroE6 cells, read-out: CC50 based on cell biomass
Description: as §1, §2

NF-κB = NF-κB transactivation luciferase assay in THP-1 NF-κB-Luc cells; assay type: cell-based, human; conditions: 100 nM plitidepsin, 6 hours; with poly I:C, LPS-B5 or Resiquimod (TLR ligands)
Description: Luminescence was measured in a Perkin-Elmer EnVision reader.

[9] = Pharmacokinetics in patients; assay type: in vivo; conditions: both sexes, plasma, Human (M/F), 0.135 mg/kg (Recommended Dose 5 mg/m2), 3-h intravenous infusion
[10] = Stability of plitidepsin drug product and reconstituted solution; assay type: physicochemical
Description: Plitidepsin will be labelled with the study protocol code, the batch number, the content, the expiry date, the storage conditions, the name of the investigator and the sponsor. The study drug will be labelled in accordance with Annex 13 of the European Good Manufacturing Practices. Plitidepsin should be stored between 2° C. and 8° C. and the vials should be kept in the outer carton to protect them from light. The drug in these conditions is stable for 60 months.
After reconstitution of the 2 mg plitidepsin vial with 4 ml of the solution for reconstitution of macrogolglycerol ricinoleate/ethanol/water for injection, the reconstituted solution should be diluted and used immediately after preparation. If not used immediately, storage times and conditions until use are the responsibility of the user. […] If storage is required before administration, solutions should be stored refrigerated and protected from light and should be used within 24 hours after reconstitution.

[11] = target: eEF1A purified from rabbit muscle (Oryctolagus cuniculus, UniProt Q71V39); assay: Binding of 14C-plitidepsin to purified eEF1A
Sequence of eEF1A purified from rabbit muscle (Q71V39 whole entry): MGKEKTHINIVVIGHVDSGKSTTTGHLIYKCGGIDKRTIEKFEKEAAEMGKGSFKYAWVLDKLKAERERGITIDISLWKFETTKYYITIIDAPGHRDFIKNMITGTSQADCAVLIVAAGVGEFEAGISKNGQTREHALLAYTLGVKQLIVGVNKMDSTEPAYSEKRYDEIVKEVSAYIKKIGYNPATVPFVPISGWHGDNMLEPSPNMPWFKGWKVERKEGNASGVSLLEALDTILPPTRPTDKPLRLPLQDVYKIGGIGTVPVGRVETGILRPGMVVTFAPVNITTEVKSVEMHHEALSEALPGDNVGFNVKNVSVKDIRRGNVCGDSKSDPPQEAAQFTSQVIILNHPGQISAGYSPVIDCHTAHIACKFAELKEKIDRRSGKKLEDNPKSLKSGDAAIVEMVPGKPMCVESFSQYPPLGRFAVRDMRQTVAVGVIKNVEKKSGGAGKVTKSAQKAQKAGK

## CC[C@H](C)[C@H]1NC(=O)[C@@H](NC(=O)[C@@H](CC(C)C)N(C)C(=O)[C@@H]2CCCN2C(=O)C(C)=O)[C@@H](C)OC(=O)[C@H](Cc2ccc(OC)cc2)N(C)C(=O)[C@@H]2CCCN2C(=O)[C@H](CC(C)C)NC(=O)[C@@H](C)C(=O)[C@H](C(C)C)OC(=O)C[C@@H]1O [plitidepsin]
[1]; Vero-E6 cells
  Concentration with antiviral activity in the absence of measurable interference with cell viability (p<0.05): 7.2 nM
[1]; VeroE6 cells
  Therapeutic index (CC50/EC50): 475
[1]; VeroE6 cells, 48 hours
  Concentration reaching background fluorescence levels: ≥ 36 nM
Alveolar macrophages
  Macrophages in bronchoalveolar lavage: decrease the percentage of macrophages presents on bronchoalveolar lavage without cytotoxic effects
SARS-CoV-2 [2]
  SI: 49.95-129.92
SARS-CoV-2 [2]; read-out: IC50 inhibition of virus infection, Vero cells, MOI 0.0125, 24 hpi, three repeats
  IC50: 3.3 to 3.9 nM
SARS-CoV-2 [3]
  IC50: 60 ± 20 nM
SARS-CoV-2 [4]
  SARS-CoV-2 replication: completely eliminated replication of SARS-CoV-2
SARS-CoV-2 [5]
  Mean time from baseline until undetectable viral load: 11 days
  Mortality from Day 1 to Day 7: 0 n (%)
  Mortality from Day 1 to Day 15: 0 n (%)
  Mortality from Day 1 to Day 31: 2 (4.5) n (%)
  Patients requiring ICU admission from Day 1 to Day 7: 5 (11.4) n (%)
  Patients requiring ICU admission from Day 1 to Day 15: 6 (13.6) n (%)
  Patients requiring ICU admission from Day 1 to Day 31: 6 (13.6) n (%)
  Patients requiring invasive mechanical ventilation and/or ICU admission from Day 1 to Day 7: 5 (11.4) n (%)
  Patients requiring invasive mechanical ventilation and/or ICU admission from Day 1 to Day 15: 6 (13.6) n (%)
  Patients requiring invasive mechanical ventilation and/or ICU admission from Day 1 to Day 31: 6 (13.6) n (%)
  Patients requiring noninvasive mechanical ventilation from Day 1 to Day 7: 4(9.1) n (%)
  Patients requiring noninvasive mechanical ventilation from Day 1 to Day 15: 5 (11.4) n (%)
  Patients requiring noninvasive mechanical ventilation from Day 1 to Day 31: 6 (13.6) n (%)
SARS-CoV-2 [5]; 96 h
  Mean change in viral load from baseline to Day 4: -1.90 log10 copies/mL
SARS-CoV-2 [5]; 168 h
  Mean change in viral load from baseline to Day 7: -3.07 log10 copies/mL
  Mean reduction in viral load: -3.1 log10 copies/mL
  Patients requiring oxygen therapy at Day 7: 31 (70.5) n (%)
SARS-CoV-2 [5]; 192 h
  Patients discharged from hospital by Day 8: 25 (56.8) n (%)
SARS-CoV-2 [5]; 360 h
  Mean change in viral load from baseline to Day 15: -4.48 log10 copies/mL
  Mean reduction in viral load: -4.5 log10 copies/mL
  Patients discharged from hospital by Day 15: 36 (81.8) n (%)
  Patients requiring oxygen therapy at Day 15: 9 (20.5) n (%)
  Reduction in viral load: -3.0 log
SARS-CoV-2 [5]; 744 h
  Mean change in viral load from baseline to Day 31: -5.27 log10 copies/mL
  Patients discharged from hospital by Day 31: 40 (90.9) n (%)
  Patients requiring oxygen therapy at Day 31: 3 (6.8) n (%)
WNV-NY99 (lineage 1) [6]; 45 nM, VeroE6 cells, 48 hours
  Reduction of extracellular infectivity titers: > 3 orders of magnitude
WNV-NY99 (lineage 1) [6]; 5 and 1.5 nM
  Intracellular WNV RNA load (RT-qPCR): not distinguishable from those in the control
WNV-NY99 (lineage 1) [6]; 15 and 45 nM
  Intracellular WNV RNA load (RT-qPCR): significantly decreased in a dose-dependent manner
WNV-NY99 (lineage 1) [7]; 15 nM
  Intracellular WNV RNA load (RT-qPCR): marked reduction in viral load
WNV-NY99 (lineage 1) [7]; 45 nM
  Total cellular RNA recovery: no RNA could be recovered
WNV-NY99 (lineage 1) [7]; 45 nM, 48 hours
  Reduction of extracellular infectivity titers: > 3 orders of magnitude
Vero-E6 cells
  Concentration up to which cell number remained unchanged: up to 36 nM
[8]
  CC50 at 48 h: 2330 nM
NF-κB
  NF-κB transactivation (luciferase activity): clearly inhibited the production of luciferase
[9]
  AUC(0-inf): 256 ng·h/mL
  Cmax: 29.1 ng/mL
  clearance: 11.7 to 15 mL/min/kg
[9]; read-out: Vdss
  Vd: 29 to 33 L/kg
[9]; read-out: t½
  half-life: 1200 to 4800 min
[10]; original vial under indoor light at room temperature
  Physical, chemical and microbiological stability of reconstituted concentrated solution: 6 hours
[10]; refrigerated conditions (5° C.±3° C.)
  Physical, chemical and microbiological stability of reconstituted concentrated solution: 24 hours
[10]; stored between 2° C. and 8° C., protected from light
  Stability of the drug (vials): 60 months
[11]
  Binding affinity to eEF1A: high affinity
  Rate of dissociation from eEF1A: low rate of dissociation
